Experimental data as given in patent US5962487A, “Antipicornaviral compounds and methods for their use and preparation” (Agouron Pharmaceuticals, Inc., priority 1997, dated 1999).

How the values were obtained:
[1] = target: T1, Rhinovirus 3C protease (RVP) serotype 16 (Human rhinovirus 16, UniProt Q82122); experiment: Inhibition of Rhinovirus Protease, serotype 16 (FRET assay); type: biochemical; conditions: enzyme start experiments, read-out: kobs/I
T1 construct: Recombinant Rhinovirus 3C proteases from serotypes 14, 16, 2 or 89 were prepared; made in house
T1 sequence (Q82122 1511-1693): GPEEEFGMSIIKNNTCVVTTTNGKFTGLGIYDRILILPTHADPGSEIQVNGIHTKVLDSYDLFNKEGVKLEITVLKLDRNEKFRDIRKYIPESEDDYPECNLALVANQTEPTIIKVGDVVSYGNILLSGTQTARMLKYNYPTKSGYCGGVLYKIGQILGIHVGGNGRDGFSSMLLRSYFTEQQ
Method: (§1) Stock solutions (50 mM, in DMSO) of various compounds were prepared; dilutions were in the same solvent. Recombinant Rhinovirus 3C proteases from serotypes 14, 16, 2 or 89 were prepared by the following standard chromatographic procedures: (1) ion exchange using Q Sepharose Fast Flow from Pharmacia; (2) affinity chromatography using Affi-Gel Blue from Biorad; and (3) sizing using Sephadex G-100 from Pharmacia. Assays contained 2% DMSO, 50 mM tris pH 7.6, 1 mM EDTA, a compound at the indicated concentrations, approximately 1 μM substrate, and 50-100 nM protease. For Ki determinations, the compound and the enzyme were preincubated for 10 minutes at 30° C. prior to addition of the substrate (substrate start). The kobs/I values were obtained from reactions initiated by addition of enzyme rather than substrate. RVP activity is measured in the fluorescence resonance energy transfer assay. The substrate was (N-terminal) DABCYL-(Gly-Arg-Ala-Val-Phe-Gln-Gly-Pro-Val-Gly)-EDANS. In the uncleaved peptide, the EDANS fluorescence was quenched by the proximal DABCYL moiety. When the peptide was cleaved, the quenching was relieved, and activity was measured as an increase in fluorescence signal.
(§2) In the above table, all data is for RVP serotype-14 unless otherwise noted in parentheses. All strains of human rhinovirus (HRV) were purchased from American Type Culture Collection (ATCC), except for serotype 14, which was produced from the infectious cDNA clone constructed and supplied to us by Dr. Roland Rueckert at the Institute for Molecular Virology, University of Wisconsin, Madison, Wis. The column designated INHIB represents the percent inhibition, with the concentration of the compound in μM indicated in parentheses, unless Ki was assigned as designated by (Ki), at 10 minute preincubation with 50 nM RVP prior to addition of substrate was used. The data in the column designated kobs/I was measured from progress curves in enzyme start experiments.

CVA-21 = experiment: Anticoxsackieviral HI-HeLa Cell Culture Assay, CVA-21; type: cell-based, Coxsackie strain A-21
Method: (§3) The ability of compounds to protect cells against CVA-21 or CVB-3 infection was measured by the XTT dye reduction method. Briefly, HI-HeLa cells were infected with CVA-21 or CVB-3 at a multiplicity of infection (m.o.i.) of 0.05 (CVA-21) and 0.08 (CVB-3) or mock-infected with medium only. Infected or uninfected cells were resuspended at 4×10^4 cells per mL and incubated with appropriate concentrations of drug. One day later, XTT/PMS was added to test plates, and the amount of formazan produced was quantified spectrophotometrically at 450/650 nm. The EC50 was calculated as the concentration of drug that increased the percentage of formazan production in drug-treated, virus-infected cells to 50% of that produced by drug-free, uninfected cells. The 50% cytotoxic dose (CC50) was calculated as the concentration of drug that decreased the percentage of formazan produced in drug-treated, uninfected cells to 50% of that produced in drug-free, uninfected cells. The therapeutic index (TI) was calculated by dividing the CC50 by the EC50.
(§4) The Coxsackie strains A-21 (CVA-21) and B-3 (CVB-3) were purchased from American Type Culture Collection (ATCC). Virus stocks were propagated and antiviral assays were performed in HI-HeLa cells (ATCC). Cells were grown in Minimal Essential Medium with 10% fetal bovine serum.

in vitro = type: cell-based; conditions: human, hi-hela cells
How it was run: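 HI-HeLa cells infected with HRV-14 at m.o.i. 0.13 or mock-infected, incubated with compounds for two days; XTT/PMS formazan read at 450/650 nm. EC50 as concentration restoring formazan to 50% of mock-infected level; CC50 from mock-infected cells; TI = CC50/EC50.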

ENT-70 = experiment: Enterovirus-70 MRC5 Cell Culture Assay; type: cell-based, Enterovirus strain 70
Method: The Echovirus strain 11 (ECHO-11) and Enterovirus strain 70 (ENT-70) were purchased from American Type Culture Collection (ATCC). Virus stocks were propagated and antiviral assays were performed in MRC5 cells (ATCC). Cells were grown in Minimal Essential Medium with 10% fetal bovine serum.
as §3, with “ECHO-11” for “CVA-21”, “ENT-70” for “CVB-3”, “MRC5” for “HI-HeLa”, “0.0013 (ECHO-11)” for “0.05 (CVA-21)”, “0.0017 (ENT-70)” for “0.08 (CVB-3)”, “2×10^4” for “4×10^4”

[2] = target: T2, Rhinovirus 3C protease (RVP) serotype 2 (Human rhinovirus 2, UniProt P04936); experiment: Inhibition of Rhinovirus Protease, serotype 2 (FRET assay); type: biochemical; conditions: enzyme start experiments, read-out: kobs/I
T2 construct: Recombinant Rhinovirus 3C proteases from serotypes 14, 16, 2 or 89 were prepared; made in house
T2 sequence (P04936 1508-1690): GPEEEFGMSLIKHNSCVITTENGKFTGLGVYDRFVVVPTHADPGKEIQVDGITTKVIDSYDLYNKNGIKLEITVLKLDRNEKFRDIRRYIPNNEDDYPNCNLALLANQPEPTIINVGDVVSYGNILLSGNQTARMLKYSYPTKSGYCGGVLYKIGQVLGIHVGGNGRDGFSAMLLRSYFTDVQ
Method: as §1, §2

CVB-3 = experiment: Anticoxsackieviral HI-HeLa Cell Culture Assay, CVB-3; type: cell-based, Coxsackie strain B-3
Method: as §3, §4

SMILES: CCOC(=O)/C=C/[C@H](CCC(N)=O)NC(=O)[C@H](Cc1ccccc1)N(C)C(=O)[C@H](CC(C)C)NC(=O)OCc1ccccc1 [Compound 2, Ethyl-3-(CBZ-L-Leu-L-N-Me-Phe-L-Gln)-E-Propenoate]
- kinact/KI [1]: 1040 M⁻¹ s⁻¹
- EC50 (CVA-21; 24 h, CVA-21 infection of Hi-HeLa cells, XTT, one day): 3300 nM
- TI (CVA-21; CC50/EC50, CVA-21): 17
- CC50 at 48 h (in vitro): 56000 nM
- TI (ENT-70; CC50/EC50, ENT-70, 1440 min): 93
- EC50 (ENT-70; Enterovirus, 24 h, ENT-70 infection of MRC5 cells, XTT, one day): 600 nM
- kinact/KI [2]: 617 M⁻¹ s⁻¹
- EC50 (CVB-3; 24 h, CVB-3 infection of Hi-HeLa cells, XTT, one day): 2000 nM
- TI (CVB-3; CC50/EC50, CVB-3): 28
